Experimental data as given in patent US5354862A, “Preparation and the use of halopropargylated cyclic quaternary ammonium compounds as antimicrobial agents” (Rohm and Haas Company, priority 1993, dated 1994).
Where two headings read alike, the source gives them in different places.

Columns and labels:
Assay in all cases: Broth two-fold serial dilution MIC test
Pseudomonas aeruginosa = type: cell-based, Pseudomonas aeruginosa (ATCC 15442); conditions: Psae
Text: (§1) A minimum inhibitory concentration (MIC) value is obtained using a broth, two-fold serial dilution test performed as follows: A stock solution or dispersion of the test compound, typically at a concentration of 1%, is made in a 5:3:2 solvent solution of acetone. methanol, and water. A volume of the stock solution is dispensed into culture media to give an initial starting test concentration of 500 ppm compound.
(§2) When the test is ready to be done, each vessel in the dilution series, except the first vessel, contains an equal volume of compound free broth. The first vessel contains twice the volume of broth with the starting concentration of test compound. One half of the broth from the first vessel is transferred to the second vessel- After being mixed, one half the resulting volume is removed from the second vessel and transferred to the third vessel. The entire cycle is repeated sufficiently to give a series of concentrations amounting to 500, 250, 125, 63, 31, 16, 8, and 4, 2, 1, 0.5, 0.25 ppm respectively.
(§3) Each vessel is then inoculated with a cell suspension of the appropriate test organism. Bacteria are grown in broth, fungi on agar slants for a time and at a temperature appropriate to the species being tested, and algae are a mixture of green algae and blue-green bacteria grown in a nutrient media. At the end of the growth period, in the case of bacteria, the broth is vortexed to disperse the cells.
(§4) In the case of fungi, the spores are harvested by pipetting water onto the slant and dislodging the spores with a sterile loop. The cell/spore suspension is standardized by controlling incubation time, temperature, and the volume of the diluent. The suspension is then used to inoculate the vessels containing the broth compound.
(§5) The vessels are then incubated at the appropriate temperature. After the incubation, the vessels are examined for growth/no growth. The minimum inhibitory concentration (MIC) is defined as the lowest concentration of compound that results in complete inhibition of growth of the test organism.
1. Pseudomonas aeruginosa

Escherichia coli = type: cell-based, Escherichia coli (ATCC 11229); conditions: Ecol
Text: as §1, §2, §3, §4, §5

Staphylococcus aureus = type: cell-based, Staphylococcus aureus (ATCC 6538); conditions: Saur
Text: as §1, §2, §3, §4, §5
2. Staphylococcus aureus

Aspergillus niger = type: cell-based, Aspergillus niger (ATCC 6275); conditions: Anig, TSB media
Text: as §1, §2, §3, §4, §5
4. Aspergillus niger 6275 Anig

[1] = Pseudomonas aeruginosa, Table 2, M9G media, read-out: MIC
[2] = Pseudomonas aeruginosa, Table 2, TSB media, read-out: MIC
[3] = Escherichia coli, Table 2, M9G media, read-out: MIC
[4] = Staphylococcus aureus, Table 2, M9G media, read-out: MIC
[5] = Staphylococcus aureus, Table 2, TSB media, read-out: MIC
[6] = Escherichia coli, Table 2, TSB media, read-out: MIC
[7] = Aspergillus niger, Table 2, read-out: MIC

SMILES	MIC (Pseudomonas aeruginosa; Table 2, M9G media)	MIC (Pseudomonas aeruginosa; Table 2, TSB media)	MIC (Escherichia coli; Table 2, M9G media)	MIC (Escherichia coli; Table 2, TSB media)	MIC (Staphylococcus aureus; Table 2, M9G media)	MIC (Staphylococcus aureus; Table 2, TSB media)	MIC (Aspergillus niger; Table 2)	MIC (Pseudomonas aeruginosa; [1])	MIC (Pseudomonas aeruginosa; [2])	MIC (Escherichia coli; [3])	MIC (Staphylococcus aureus; [4])	MIC (Staphylococcus aureus; [5])	MIC (Escherichia coli; [6])	MIC (Aspergillus niger; [7])	also measured
CCCCCCCCCCCCCC[N+]1(CC#CI)CCCC1 [Compound 34, 1-tetradecyl-1-(3-iodopropargyl)-pyrrolidinium benzenesulfonate]	2 ppm	2 ppm	0.25 ppm	0.25 ppm	< 0.25 ppm	< 0.25 ppm	0.25 ppm	–	–	–	–	–	–	–	MIC (Pseudomonas aeruginosa; Table 3 comparison, M9G media): 2 ppm; MIC (Pseudomonas aeruginosa; Table 3 comparison, TSB media): 2 ppm; MIC (Escherichia coli; Table 3 comparison, M9G media): 0.25 ppm; MIC (Escherichia coli; Table 3 comparison, TSB media): 0.25 ppm; MIC (Staphylococcus aureus; Table 3 comparison, M9G media): < 0.25 ppm; MIC (Staphylococcus aureus; Table 3 comparison, TSB media): < 0.25 ppm; MIC (Aspergillus niger; Table 3 comparison): 0.25 ppm
CCCCCCCCCCCCCCCC[N+]1(CC#CI)CCCC1 [Compound 35, 1-hexadecyl-1-(3-iodopropargyl)-pyrrolidinium methanesulfonate]	> 500 ppm	> 500 ppm	4 ppm	63 ppm	0.5 ppm	0.25 ppm	4 ppm	–	–	–	–	–	–	–	–
CCCCCCCCCCCCC[N+]1(CC#CI)CCCC1 [Compound 36, 1-tridecyl-1-(3-iodopropargyl)-pyrrolidinium methanesulfonate]	32 ppm	63 ppm	2 ppm	8 ppm	< 0.25 ppm	< 0.25 ppm	1 ppm	–	–	–	–	–	–	–	–
CCCCCCCCCCCC[N+]1(CC#CI)CCCC1 [Compound 37, 1-dodecyl-1-(3-iodopropargyl)-pyrrolidinium methanesulfonate]	63 ppm	125 ppm	2 ppm	16 ppm	0.5 ppm	0.5 ppm	0.25 ppm	–	–	–	–	–	–	–	–
CCCCCCCCCCCCCCC[N+]1(CC#CI)CCCC1 [Compound 38, 1-pentadecyl-1-(3-iodopropargyl)-pyrrolidinium methanesulfonate]	32 ppm	63 ppm	1 ppm	8 ppm	< 0.25 ppm	< 0.25 ppm	0.5 ppm	–	–	–	–	–	–	–	–
CCCCCCCCCCCCCC[N+]1(CC#CI)CCCC1 [Compound 39, 1-tetradecyl-1-(3-iodopropargyl)-pyrrolidinium methanesulfonate]	63 ppm	63 ppm	1 ppm	2 ppm	< 0.25 ppm	< 0.25 ppm	0.5 ppm	–	–	–	–	–	–	–	–
CCCCCCCCCCCCCCCC[N+]1(CC#CI)CCOCC1 [Compound 40, 1-hexadecyl-1-(3-iodopropargyt)-morpholinium methanesulfonate]	–	–	–	< 0.25 ppm	–	–	< 0.25 ppm	4 µg/mL	4 µg/mL	0.5 µg/mL	< 0.25 µg/mL	0.5 µg/mL	–	–	–
CCCCCCCCCCCCCC[N+]1(CC#CI)CC(C)OC(C)C1 (centres unmarked) [Compound 43, 4-tetradecyl-4-(3-iodopropargyl)-2,6-dimethylmorpholinium 4-methylbenzenesulfonate]	–	–	–	–	–	–	–	2 µg/mL	4 µg/mL	< 0.25 µg/mL	< 0.25 µg/mL	0.5 µg/mL	0.5 µg/mL	1 µg/mL	–
CCCCCCCCCCCCCCCC[N+]1(CC#CI)CCCCCC1 [Compound 44, 1-hexadecyl-1-(3-iodopropargyl)-hexamethyleneiminium 4-methylbenzenesulfonate]	–	–	–	–	–	–	–	8 µg/mL	8 µg/mL	8 µg/mL	8 µg/mL	4 µg/mL	16 µg/mL	8 µg/mL	–
CCCCCCCCCCCCCC[N+]1(CC#CI)CCCCCC1 [Compound 45, 1-tetradecyl-1-(3-iodopropargyl)-hexamethyleneiminium 4-methylbenzenesulfonate]	–	–	–	–	–	–	–	4 µg/mL	4 µg/mL	< 0.25 µg/mL	< 0.25 µg/mL	< 0.25 µg/mL	< 0.25 µg/mL	1 µg/mL	–
